This is an account of results in publication PMC12757955, “A nonavalent BODIPY with a multivalent arrangement of α-mannosides enables lectins recognition in fluorescence-based assays” (RSC Chemical Biology, 2025).

Assay [1] has as its target T1, ConA (Canavalia ensiformis, UniProt P02866).
T1 construct: purchased Sigma Aldrich L7647-100MG
Put plainly: Competitive fluorescence polarization assay (displacement of Man9-BODIPY from ConA). In kind it is binding. As to the method: Titration experiments allowed us to define the concentration of ConA to be used in a competitive displacement assay, which was set to 2 µM.
The fluorescence polarization is expressed in millipolarization (mP) units (A).
(§1) All experiments were performed at room temperature (25 °C).
A general note: Fluorescence polarisation rises when a labelled molecule tumbles more slowly, as on binding a larger partner.

Assay [2] deals with T1, ConA.
Method: Accordingly, preliminary agglutination experiments were performed by following a previously reported protocol,[28] thus expecting aggregation of lectin with the mannosylated BODIPYs driven by the molecular recognition of the mannose residues on the fluorescent probes. Accordingly, Tris-BODIPY-OH was used as a negative control. The changes in the absorption (λ = 490 nm) of the solutions of the glycoBODIPYs treated with a fixed concentration of ConA (20 µM in HEPES 25 mM, pH 7.6, 1 mM CaCl2, 1 mM MnCl2) were monitored over time (0–30 min, Fig. 3A).
Data are normalized according to the maximum optical density value.
A solution of ConA (20 µM) in the buffer (HEPES 25 mM pH 7.6, 1 mM CaCl2, 1 mM MnCl2) was prepared. In a 96-well plate (Microplate, 96 wells, PS, F-BOTTOM (CHIMNEY WELL), clear, non-binding) were placed 100 µL of the 20 µM solution of each BODIPY, then 100 µL of the solution of ConA was added. The mixture was gently shaken for 10 minutes, then the optical density at λ = 490 nm was measured every minute for 30 minutes. The measurements were carried out in triplicate.
In a further assay the target is T2, concanavalin A (ConA) (Canavalia ensiformis, UniProt P02866).
T2 construct: purchased Sigma Aldrich L7647-100MG
As to the kind of experiment: Fluorescence polarization (FP) titration of BODIPY probes with ConA. The assay is classed as binding. The following applies: probe 0.5 µM, increasing ConA. As to the method: All experiments were conducted at 25 °C.
as §1

Assay [3] concerns the target T1, ConA. The assay is classed as binding. The following applies: BODIPY 500 nM, ConA 500 nM.
Method: Accordingly, FLIM was used in this work to directly visualize the formation of the glycoBODIPY/ConA complexes. […] The color scale in the images corresponds to the dye lifetime measured by FLIM for each pixel in the image.
Fig. 4 FLIM images measured for: (left panels) the (free) BODIPY solutions 500 nM in HEPES 25 mM pH 7.6, 1 mM CaCl2, 1 mM MnCl2 and for (right panels) solutions of the BODIPYs (500 nM) combined with ConA (500 nM in HEPES 25 mM pH 7.6, 1 mM CaCl2, 1 mM MnCl2).
FLIM was performed at room temperature (20 °C) on a Nikon Ti AX-R NSPARC confocal microscope using a Nikon Plan Apo λD 100× oil immersion objective (NA = 1.45). The microscope is equipped with a two-channel PicoQuant FLIM compact module system. Images of 1024 × 1024 pixels were acquired using a 488 nm pulsed laser for excitation and recording photons of fluorescence emission at a wavelength of 620 ± 50 nm for 90 s at a frequency of 25 MHz through a PMA Hybrid single photon counting module and a MultiHarp 150 multichannel event timer. Lifetime histograms were calculated and analyzed using SymphoTime©. Samples were inserted into LabteK chambers, and the images were acquired at 10 µm from the coverslip to avoid interactions of the dye with the surface of the coverslip.
For assay [4], the target named is T1, ConA. In kind it is binding. The following applies: FCS, probe 500 nM, ConA 50 nM.
Method: 500 nM solution of each dye in the absence or presence of 50 nM ConA was placed in a glass-bottom ibidi 18-well µ-slides, precoated with albumin (Sigma Aldrich) to reduce dye adsorption to the surface. FCS experiments were performed with an Abberior Instruments microscope in the confocal mode using the Olympus UPlanSApo 60×/1.2 water immersion objective and steered through the Imspector software. Fluorescence was excited by a 561 nm pulsed excitation laser at an average power of around 10 µW, and detected by an avalanche photodiode through a 0.9 Airy-unit pinhole and a 580–630 nm emission filter (Semrock). Intensity fluctuations were acquired in 2 µs bins for 15–120 seconds at least 5 times per sample. The intensity traces were autocorrelated and further analysed with the open source FoCuS-scan software (https://github.com/dwaithe/FCS_scanning_correlator)[41] employing the 3D-diffusion model (fits in Fig. 8) with the aspect ratio of the optical point-spread-function and anomalous diffusion exponent fixed to 10 and 0.9, respectively.

With `OC[C@H]1OC(O)[C@@H](O)[C@@H](O)[C@@H]1O` (stereo partly drawn) [D-mannose], at ConA [1], the “Competitive displacement of the probe (in words)” value is reported as “competitively displaced the probe”, the mP0 came to 113.9 ± 4.0 and the mPmax was 432 ± 13.
As for `CO[C@H]1O[C@H](CO)[C@@H](O)[C@H](O)[C@@H]1O` [α-O-methyl-D-mannopyranoside], the “Deagglutination of glycoBODIPYs/ConA aggregates” value at ConA [2] (50 mM competitor added, optical density at 490 nm) was “fast deagglutination process”.
In the case of `CC1=C(C#CCOCC(CO)(CO)CO)C(C)=[N+]2C1=C(c1ccc(-n3cc(COCC(CO)(CO)CO)nn3)cc1)c1c(C)c(C#CCOCC(CO)(CO)CO)c(C)n1[B-]2(F)F` [Tris-BODIPY-OH], the “Binding to ConA in FP titration (in words)” value on concanavalin A (ConA) is “did not bind to ConA”. For the same molecule, the “Change of turbidity / absorption (λ = 490 nm) over time with ConA” value on ConA [2] (BODIPY 20 µM solution, ConA 20 µM solution, HEPES pH 7.6, 0–30 min) is recorded as “No change in the absorption”. The “Change of fluorescence lifetime histogram in the presence of ConA” value on ConA [3] is on record as “the peak of the histogram is unchanged”. Further, at ConA [4], the “Shift of the autocorrelation curve in the presence of ConA” value is “no shift was observed”.
